Data published in patent US20110275574A1, “METHOD OF INHIBITING PROLIFERATION OF HEPATIC STELLATE CELLS” (Agency for Science, Technology and Research, priority 2009, published 2011).
d = 2'-deoxy (DNA); r = 2'-OH (RNA)

Legend:
Assay type in all cases: cell-based, rat
HSC-2 cells [1] = assay: gap-FRAP analysis of gap junction intercellular communication
Description: Analysis of gap junction intercellular communication: HSC-2 cells were grown in a 60 mm cell culture dish overnight. At 90% cell confluence, hTGF-β1 (final concentration 10 ng/ml) or carbenoxolone (final concentration 40 μM) was added and incubated for 6 hours. As control, only PBS was given to the cells. Alternatively, BIM I (final concentration 5 μM) was added 30 minutes before the addition of hTGF-[3]. After a brief rinse in PBS, cells were incubated in D-MEM without phenol red, containing 5,6-carboxyfluorescein diacetate (Research Organics, USA) at a final concentration of 50 μg/ml and incubated in a 37° C. humidified incubator for 30 min. The cells were then rinsed twice with PBS and D-MEM without phenol red was added before proceeding with the Fluorescence Recovery After Photobleaching (FRAP) assay. The FRAP application included in the software package of the LEICA TCS SP2 equipped with the DM6000 (LEICA, Germany) was used. A 63× immersed objective (Leica HCX APO L U-V-I 63×/0.90 Water UV) was used. The argon laser at 488 nm was used for excitation and the fluorescence signal was captured between 500 and 535 nm. The conditions were as follows: 5 pre-bleach scans at 10% laser power, 40 bleach scans at 100% laser power followed by 60 post-bleach scans at 15 seconds intervals. During the bleaching period, the Zoom mode was used to bleach a single cell (target cell) defined in a region of interest (ROI). All data were corrected for photobleaching during post-bleach acquisition using the whole scanned area. The time constant of recovery, tau (τ), was estimated by fitting the corrected experimental data (OriginPro 7 SR4, OriginLab USA) to the following function: F(t)=F0+(F∞−F0)(1−e^−t/τ), with F(t) being the corrected fluorescence intensity and F∞ being the asymptotic value of the fluorescence intensity. The transfer constant (k) was calculated from k=1/τ and normalized by dividing by the number of cells in contact with the target cell. The fluorescence recovery for each cell was about 50%.

HSC-2 cells [2] = assay: Cell counting (proliferation) of HSC-2 cells; conditions: HSC-2, Cx43 siRNA 10 nM, 48 hours, versus mock-transfected
Description: (§1) Snai1 and connexin 43 siRNAs transfection: Shortly before transfection, 1−2×10^6 HSC-2 cells were seeded in 100 mm cell culture dishes and incubated at 37° C. The siRNA was added at a final concentration of 10 nM to 1 ml of D-MEM without serum, followed by 120 μl of HiPerfect transfection reagent (Qiagen, Germany) and incubated for 10 min. The siRNA/transfection reagent solution was added drop-wise to the cells and incubated for 24 or 48 hours. As mock control, only HiPerfect reagent was added to the cells. The Snai1 siRNAs used were Rn_Snai1—1 and Rn_Snai1—3 and the Cx43 siRNAs used were Rn_Gja1—1 and Rn_Gja1—5 (Qiagen, Germany).
Cell counting: After treatment, cells were washed once with PBS and detached using trypsin/EDTA. Following centrifugation at 800 rpm for 4 min, the cell pellet was resuspended in 1 ml D-MEM and the cells were counted using the forward scatter function of the GUAVA PCA-96 (Guava Technologies, CA, USA).

Cx43 mRNA = Cx43 mRNA expression by quantitative real-time PCR in HSC-2 cells; conditions: HSC-2, Cx43 siRNA 10 nM, 48 hours, relative to mock-transfected
Description: Cell culture conditions: Primary hepatic stellate cells were isolated from male Wistar rats according to a previously published procedure (Weiskirchen and Gressner, 2005). The protocol was approved by the Institutional Animal Care and Use Committee (IACUC) of the Biomedical Research Council of Singapore. The purity of primary HSCs was assessed by vitamin A autofluorescence one day after isolation. The cell line HSC-2 was described elsewhere (Maubach et al., 2008). All cells were cultivated in a humidified 37° C. incubator circulated with 5% CO2. High glucose Dulbecco's modified Eagle medium (D-MEM) containing 10% fetal bovine serum, 100 units/ml penicillin and 100 μg/ml streptomycin was used during cell culture. Trypsin-EDTA was purchased from Biochrome (Germany). All other cell culture reagents were from Invitrogen (CA, USA).
(§2) Hepatic stellate cells treatment with recombinant human TGF-β1: Twenty four hours prior to treatment, HSCs were seeded in 75 cm^2 tissue culture flasks. At 60-70% cell confluence, recombinant human TGF-β1 (hTGF-[3]) was added at a final concentration of 1 or 10 ng/ml and incubated for 2, 6, 10, 24 or 30 hours. For the control treatment, only phosphate-buffered saline (PBS) was given to the cells. In some experiments, HSC-2 cells were treated with bisindolylmaleimide I (BIM I) at a final concentration of 5 μM for 30 min before treatment with 10 ng/ml hTGF-β1.
Reverse transcription and quantitative PCR: Total RNA was isolated from cells according to the manufacturer's protocol (RNA II kit, Machery-Nagel, Germany). All reagents for reverse transcription and real-time PCR were from Applied Biosystems (CA, USA). One microgram of total RNA was reverse transcribed to cDNA in a total reaction volume of 50 μl at conditions described in the RT kit (N8080234). Real-time PCR reactions were performed using the Fast Real Time PCR System (Applied Biosystems). Three microlitres of cDNA were used in a PCR reaction volume of 10 μl. The Taqman probes for target genes Cx43 and Snai1, as well as for endogenous control β-actin were Rn01433957_m1, Rn00441533_g1 and 4352341E, respectively. The PCR conditions were 95° C. for 20 s and 40 cycles of amplification at 95° C. for 3 s and 60° C. for 30 s.
as §1

pCx43 Ser368 = assay: Phosphorylation of Cx43 at serine 368 by Western blot in HSC-2 cells; conditions: HSC-2, 5 μM BIM I 30 min before 10 ng/ml hTGF-β1
Description: as §2
SDS-PAGE and Western blot: Cell lysis and subsequent separation of total protein in SDS-PAGE followed by Western blot was performed as recently described (Lim et al., 2008). The membrane was blocked with 5% non-fat milk in TBS-Tween (TBS-T). The Cx43 (sc-9059, Santa Cruz Biotechnology, USA), phosphorylated Cx43 at serine 368 (pCx43 Ser368, 3511S, Cell Signaling Technology, USA), PCNA (Ab29, Abcam, UK) and β-actin (A2228, Sigma, USA) primary antibodies were applied at a dilution of 1:1000, 1:750, 1:5000 and 1:7500 respectively in blocking solution. […] Semi-quantitative densitometric analysis of Western blots was performed using the ImageJ software (W. Rasband, NIH; rsb.info.nih.gov/ij/).

Molecule: CC1(C)[C@@H](OC(=O)CCC(=O)O)CC[C@]2(C)[C@H]3C(=O)C=C4[C@@H]5C[C@@](C)(C(=O)O)CC[C@]5(C)CC[C@@]4(C)[C@]3(C)CC[C@@H]12 [carbenoxolone]
- dye transfer rate (k), reduced to (HSC-2 cells [1]; HSC-2, 40 μM carbenoxolone, 6 hours): about 50%

Molecule: Cx43 siRNA 1: Cx43 siRNA, sense strand r(CAG UGC ACA UGU AAC UAA U)dTdT [SEQ ID NO: 6], antisense SEQ ID NO: 7 (Qiagen) (sense CAGUGCACAUGUAACUAAUTT; antisense AUUAGUUACAUGUGCACUGTT; sugars from the 5' end r19 d2, backbone not given here)
- total number of cells (HSC-2 cells [2]): significant decline
- down-regulation of Cx43 mRNA (Cx43 mRNA): about 65%

Molecule: CN(C)CCCn1cc(C2=C(c3c[nH]c4ccccc34)C(=O)NC2=O)c2ccccc21 [BIM I, bisindolylmaleimide I, reference compound]
- TGF-β1-induced down-regulation of GJIC (HSC-2 cells [1]; HSC-2, 5 μM BIM I 30 minutes before 10 ng/ml hTGF-β1): attenuated
- phosphorylation of Cx43 at serine 368 after hTGF-β1 (pCx43 Ser368): reduces
